Measured values published in patent US20260062422A1 (Halda Therapeutics OpCo, Inc., priority 2022, published 2026).

Experiments:
[1] = test system: T-Rex 293 cell line SC3 cells having increased expression of androgen receptor protein due to exposure to doxycycline; experiment: Cellular growth inhibition, T-Rex 293 SC3 cells with doxycycline (androgen receptor induced), CellTiter-Glo; format: cell-based; conditions: 72 h, T-Rex 293 SC3 cells with 10 ng/mL doxycycline (increased androgen receptor expression)
How it was run: (§1)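 Cells of clone SC3 are seeded in charcoal-dextran-stripped serum medium with or without 10 ng/mL doxycycline to induce wild-type androgen receptor. After 24 h, serial compound dilutions are added at 0.5% DMSO and incubated 72 h at 37 °C. CellTiter-Glo 2.0 measures viability, giving GI50 values.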

[2] = test system: T-Rex 293 cell line SC3 cells lacking increased expression of androgen receptor protein; experiment: Cellular growth inhibition, T-Rex 293 SC3 cells without doxycycline, CellTiter-Glo; format: cell-based; conditions: 72 h, T-Rex 293 SC3 cells not exposed to doxycycline, CellTiter-Glo 2.0
How it was run: as §1

T47D cells = experiment: Cellular growth inhibition assay for T47D cells, CellTiter-Glo; format: cell-based, human; conditions: Homo sapiens, T47D, 72 h, 72 hours treatment, CellTiter-Glo 2.0 cell viability
How it was run: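 Cells are plated at 3000/well and allowed 24 h before treatment. Test compound in medium containing 0.5% DMSO is then added, with DMSO-only wells as negative control, and plates are incubated 72 h at 37 °C. ATP luminescence (CellTiter-Glo 2.0) is then fitted to four parameters to derive GI50.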

GI50 (T47D cells) [nM] | Compound | GI50 [1] [nM] | GI50 [2] [nM]
< 500 | Cc1sc2c(c1C)C(c1ccc(Cl)cc1)=N[C@@H](CC(=O)NCCN(C)c1ncc(C(=O)N[C@H]3C(C)(C)[C@H](Oc4ccc(C#N)c(Cl)c4)C3(C)C)cn1)c1nnc(C)n1-2 [Compound I-1, N-[3-(3-chloro-4-cyano-phenoxy)-2,2,4,4-tetramethyl-cyclobutyl]-2-[2-[[2-[(9S)-7-(4-chlorophenyl)-4,5,13-trimethyl-3-thia-1,8,11,12-tetrazatricyclo[8.3.0.02,6]trideca-2(6),4,7,10,12-pentaen-9-yl]acetyl]amino]ethyl-methyl-amino]pyrimidine-5-carboxamide] | 1500 to 3000 | 1500 to 3000
< 500 | Cc1sc2c(c1C)C(c1ccc(Cl)cc1)=N[C@@H](CC(=O)NCCOCCOCCOC1CCN(c3ncc(C(=O)N[C@H]4C(C)(C)[C@H](Oc5ccc(C#N)c(Cl)c5)C4(C)C)cn3)CC1)c1nnc(C)n1-2 [Compound I-7] | < 500 | 500 to 1500
500 to 1500 | Cc1sc2c(c1C)C(c1ccc(Cl)cc1)=N[C@@H](CC(=O)NCCOCCOCCOCCOCCOC1CCN(c3ncc(C(=O)N[C@H]4C(C)(C)[C@H](Oc5ccc(C#N)c(Cl)c5)C4(C)C)cn3)CC1)c1nnc(C)n1-2 [Compound I-8] | < 500 | 1500 to 3000
500 to 1500 | Cc1sc2c(c1C)C(c1ccc(Cl)cc1)=N[C@H](CC(=O)NCCOCCOCCOCCOCCOC1CCN(c3ncc(C(=O)N[C@H]4C(C)(C)[C@H](Oc5ccc(C#N)c(Cl)c5)C4(C)C)cn3)CC1)c1nnc(C)n1-2 [Compound I-14] | > 3000 | > 3000
< 500 | Cc1sc2c(c1C)C(c1ccc(Cl)cc1)=N[C@@H](CC(=O)NCCCN1CCN(CC3CCN(c4ncc(C(=O)N[C@H]5C(C)(C)[C@H](Oc6ccc(C#N)c(Cl)c6)C5(C)C)cn4)CC3)CC1)c1nnc(C)n1-2 [Compound I-36, N-((1r,3r)-3-(3-chloro-4-cyanophenoxy)-2,2,4,4-tetramethylcyclobutyl)-2-(4-((4-(3-(2-((S)-4-(4-chlorophenyl)-2,3,9-trimethyl-6H-thieno[3,2-f][1,2,4]triazolo[4,3-a][1,4]diazepin-6-yl)acetamido)propyl)piperazin-1-yl)methyl)piperidin-1-yl)pyrimidine-5-carboxamide] | 500 to 1500 | 500 to 1500
500 to 1500 | Cc1sc2c(c1C)C(c1ccc(OCCOC3CCN(c4ncc(C(=O)N[C@H]5C(C)(C)[C@H](Oc6ccc(C#N)c(Cl)c6)C5(C)C)cn4)CC3)cc1)=N[C@@H](CC(=O)O)c1nnc(C)n1-2 [Compound I-38] | 500 to 1500 | > 3000
1500 to 3000 | Cc1sc2c(c1C)C(c1cccc(OCCOC3CCN(c4ncc(C(=O)N[C@H]5C(C)(C)[C@H](Oc6ccc(C#N)c(Cl)c6)C5(C)C)cn4)CC3)c1)=N[C@@H](CC(=O)O)c1nnc(C)n1-2 [Compound I-41] | 500 to 1500 | > 3000
500 to 1500 | CCNC(=O)C[C@@H]1N=C(c2ccc(OCCOCCOC3CCN(c4ncc(C(=O)N[C@H]5C(C)(C)[C@H](Oc6ccc(C#N)c(Cl)c6)C5(C)C)cn4)CC3)cc2)c2c(sc(C)c2C)-n2c(C)nnc21 [Compound I-44] | < 500 | 500 to 1500
500 to 1500 | CCNC(=O)C[C@@H]1N=C(c2cccc(OCCOC3CCN(c4ncc(C(=O)N[C@H]5C(C)(C)[C@H](Oc6ccc(C#N)c(Cl)c6)C5(C)C)cn4)CC3)c2)c2c(sc(C)c2C)-n2c(C)nnc21 [Compound I-46, N-((1r,3r)-3-(3-chloro-4-cyanophenoxy)-2,2,4,4-tetramethylcyclobutyl)-2-(4-(2-(3-((S)-6-(2-(ethylamino)-2-oxoethyl)-2,3,9-trimethyl-6H-thieno[3,2-f][1,2,4]triazolo[4,3-a][1,4]diazepin-4-yl)phenoxy)ethoxy)piperidin-1-yl)pyrimidine-5-carboxamide] | < 500 | 500 to 1500
< 500 | Cc1sc2c(c1C)C(c1ccc(OC3CC4(CCN(c5ncc(C(=O)N[C@H]6C(C)(C)[C@H](Oc7ccc(C#N)c(Cl)c7)C6(C)C)cn5)CC4)C3)cc1)=N[C@@H](Cc1ncco1)c1nnc(C)n1-2 [Compound I-49, N-[3-(3-chloro-4-cyano-phenoxy)-2,2,4,4-tetramethyl-cyclobutyl]-2-[2-[4-[(9S)-4,5,13-trimethyl-9-(oxazol-2-ylmethyl)-3-thia-1,8,11,12-tetrazatricyclo[8.3.0.02,6]trideca-2(6),4,7,10,12-pentaen-7-yl]phenoxy]-7-azaspiro[3.5]nonan-7-yl]pyrimidine-5-carboxamide] | < 500 | < 500
500 to 1500 | CCNC(=O)C[C@@H]1N=C(c2ccc(C#CCN3CCN(c4ncc(C(=O)N[C@H]5C(C)(C)[C@H](Oc6ccc(C#N)c(Cl)c6)C5(C)C)cn4)CC3)cc2)c2c(sc(C)c2C)-n2c(C)nnc21 [Compound I-54, N-[3-(3-chloro-4-cyano-phenoxy)-2,2,4,4-tetramethyl-cyclobutyl]-2-[4-[3-[4-[(9S)-9-[2-(ethylamino)-2-oxo-ethyl]-4,5,13-trimethyl-3-thia-1,8,11,12-tetrazatricyclo[8.3.0.02,6]trideca-2(6),4,7,10,12-pentaen-7-yl]phenyl]prop-2-ynyl]piperazin-1-yl]pyrimidine-5-carboxamide] | < 500 | 500 to 1500
> 3000 | Cc1sc2c(c1C)C(c1ccc(C#CCN3CCN(c4ncc(C(=O)N[C@H]5C(C)(C)[C@H](Oc6ccc(C#N)c(Cl)c6)C5(C)C)cn4)CC3)cc1)=N[C@@H](CC(=O)OC(C)(C)C)c1nnc(C)n1-2 [Compound I-55] | < 500 | > 3000
500 to 1500 | CCNC(=O)C[C@@H]1N=C(c2ccc(OCCOC3CCN(c4ncc(C(=O)N[C@H]5C(C)(C)[C@H](Oc6ccc(C#N)c(Cl)c6)C5(C)C)cn4)CC3)cc2)c2c(sc(C)c2C)-n2c(C)nnc21 [Compound I-60, N-((1r,3r)-3-(3-chloro-4-cyanophenoxy)-2,2,4,4-tetramethylcyclobutyl)-2-(4-(2-(4-((S)-6-(2-(ethylamino)-2-oxoethyl)-2,3,9-trimethyl-6H-thieno[3,2-f][1,2,4]triazolo[4,3-a][1,4]diazepin-4-yl)phenoxy)ethoxy)piperidin-1-yl)pyrimidine-5-carboxamide] | < 500 | < 500
500 to 1500 | CCNC(=O)C[C@@H]1N=C(c2ccc(OC3CCN(c4ncc(C(=O)N[C@H]5C(C)(C)[C@H](Oc6ccc(C#N)c(Cl)c6)C5(C)C)cn4)CC3)cc2)c2c(sc(C)c2C)-n2c(C)nnc21 [Compound I-61] | < 500 | 1500 to 3000
500 to 1500 | CCN(C)C(=O)C[C@@H]1N=C(c2ccc(OCCOC3CCN(c4ncc(C(=O)N[C@H]5C(C)(C)[C@H](Oc6ccc(C#N)c(Cl)c6)C5(C)C)cn4)CC3)cc2)c2c(sc(C)c2C)-n2c(C)nnc21 [Compound I-66] | < 500 | < 500
< 500 | CCNC(=O)C[C@@H]1N=C(c2ccc(OCC3CN(c4ncc(C(=O)N[C@H]5C(C)(C)[C@H](Oc6ccc(C#N)c(Cl)c6)C5(C)C)cn4)C3)cc2)c2c(sc(C)c2C)-n2c(C)nnc21 [Compound I-71] | < 500 | 500 to 1500
500 to 1500 | CCNC(=O)C[C@@H]1N=C(c2ccc(OCCOC3CCN(c4ncc(C(=O)N[C@H]5C(C)(C)[C@H](Oc6ccc(C#N)c(Cl)c6)C5(C)C)cn4)CC3)c(F)c2F)c2c(sc(C)c2C)-n2c(C)nnc21 [Compound I-73] | < 500 | 500 to 1500
